Measurements reported in patent US20260241008A1, “COMPOSITION CONTAINING SELF-ASSEMBLED STRUCTURE AND FREEZE-DRIED PRODUCT THEREOF” (Resonac Corporation, priority 2023, published 2026).

Assay: Krafft point of TPNa aqueous solution
Format: physicochemical

Compound: Cc1c(C)c2c(c(C)c1OP(=O)([O-])[O-])CCC(C)(CCCC(C)CCCC(C)CCCC(C)C)O2.[Na+].[Na+] (racemic) [TPNa, sodium salt of the dl-α-tocopheryl phosphate]
- Krafft point (Kp): 16.2 °C
